ChEMBL document CHEMBL1201862, “PubChem BioAssay data set” (2004)
Calls of active or inactive are those of the source.

Tests used:
[1] = target: Delta-type opioid receptor (Homo sapiens, UniProt P41143); assay: Counterscreen for agonists of heterodimerization of the mu 1 (OPRM1) and delta 1 (OPRD1) opioid receptors: Luminescence-based cell-based high throughput dose response assay to identify agonists of OPRD1 homodimerization. [Related pubchem assays (depositor defined):AID504326, AID504355, AID504692, AID504904, AID504905]; format: functional
Mu-type opioid receptor = Mu-type opioid receptor (Homo sapiens, UniProt P35372); assay: Counterscreen for agonists of heterodimerization of the mu 1 (OPRM1) and delta 1 (OPRD1) opioid receptors: Luminescence-based cell-based high throughput dose response assay to identify agonists of OPRM1 homodimerization.; format: functional;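 also: U2OS cells expressing OPRM1 and beta-arrestin as split beta-galactosidase partners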
[2] = target: 5-hydroxytryptamine receptor 5A (Homo sapiens, UniProt P47898); assay: Counterscreen for agonists of OPRM1-OPRD1 heterodimerization: luminescence-based cell-based high throughput dose response assay to identify agonists of 5-hydroxytryptamine (serotonin) 5A receptor (HTR5A). [Related pubchem assays (depositor defined):AID504326, AID504355, AID504692, AID504904, AID504905]; format: functional
CAAX prenyl protease 2 = CAAX prenyl protease 2 (Homo sapiens, UniProt Q9Y256); assay: human Rce1 protease inhibitors, dose response, biochemical, yeast membranes, quenched-peptide fluorescence, cherry-pick (AID 588849)
Caspase-6 = target: T1, Caspase-6 (Homo sapiens, UniProt P55212); assay: human caspase-6 inhibitors, dose response, biochemical, VEID-R110 fluorescence, cherry-pick (AID 720632)
T1 sequence (P55212 whole entry): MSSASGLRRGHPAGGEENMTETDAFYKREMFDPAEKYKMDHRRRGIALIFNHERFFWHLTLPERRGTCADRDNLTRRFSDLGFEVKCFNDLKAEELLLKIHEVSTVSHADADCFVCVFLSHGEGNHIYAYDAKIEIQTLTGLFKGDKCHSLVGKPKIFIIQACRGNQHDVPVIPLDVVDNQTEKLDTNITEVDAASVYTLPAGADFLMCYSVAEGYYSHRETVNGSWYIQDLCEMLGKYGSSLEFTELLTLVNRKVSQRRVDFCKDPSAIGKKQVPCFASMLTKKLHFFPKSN

[3] = target: Mitogen-activated protein kinase 10 (Homo sapiens, UniProt P53779); assay: Dose response biochemical screening assay for inhibitors of c-Jun N-Terminal Kinase 3 (JNK3). [Related pubchem assays: 746 ]
A-375 [4] = assay: MITF: Counter assay: A375 proliferation Measured in Cell-Based System Using Plate Reader - 2084-03_Inhibitor_Dose_DryPowder_Activity. [Related pubchem assays (depositor defined):AID488944]; format: functional; details: Homo sapiens
A-375 [5] = assay: A375 melanoma cell viability reduction, dose response, counter-screen for MITF modulator project, cherry-pick samples, set 2 (AID 540335); format: functional, cell-based; details: Homo sapiens
Escherichia coli = assay: microbe, parasite or virus in culture

CAAX prenyl protease 2, sequence (Q9Y256 whole entry): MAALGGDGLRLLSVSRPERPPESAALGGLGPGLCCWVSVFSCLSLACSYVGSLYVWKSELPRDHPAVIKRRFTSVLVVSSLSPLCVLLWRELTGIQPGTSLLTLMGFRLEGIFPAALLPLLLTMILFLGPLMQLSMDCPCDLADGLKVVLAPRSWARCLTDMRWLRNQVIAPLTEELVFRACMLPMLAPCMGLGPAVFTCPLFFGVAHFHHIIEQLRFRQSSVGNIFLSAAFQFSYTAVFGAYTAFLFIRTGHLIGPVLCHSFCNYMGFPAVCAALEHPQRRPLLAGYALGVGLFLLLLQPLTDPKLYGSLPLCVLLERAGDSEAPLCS
Delta-type opioid receptor, sequence (P41143 whole entry): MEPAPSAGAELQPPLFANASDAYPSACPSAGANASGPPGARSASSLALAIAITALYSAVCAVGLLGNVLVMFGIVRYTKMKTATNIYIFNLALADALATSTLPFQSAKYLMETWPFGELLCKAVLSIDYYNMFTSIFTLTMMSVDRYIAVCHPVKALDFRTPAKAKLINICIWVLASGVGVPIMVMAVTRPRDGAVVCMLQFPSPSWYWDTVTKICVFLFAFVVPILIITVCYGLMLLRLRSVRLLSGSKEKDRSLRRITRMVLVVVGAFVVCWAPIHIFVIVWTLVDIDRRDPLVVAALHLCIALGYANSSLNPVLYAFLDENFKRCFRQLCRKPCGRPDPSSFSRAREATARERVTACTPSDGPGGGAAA
Mu-type opioid receptor, sequence (P35372 whole entry): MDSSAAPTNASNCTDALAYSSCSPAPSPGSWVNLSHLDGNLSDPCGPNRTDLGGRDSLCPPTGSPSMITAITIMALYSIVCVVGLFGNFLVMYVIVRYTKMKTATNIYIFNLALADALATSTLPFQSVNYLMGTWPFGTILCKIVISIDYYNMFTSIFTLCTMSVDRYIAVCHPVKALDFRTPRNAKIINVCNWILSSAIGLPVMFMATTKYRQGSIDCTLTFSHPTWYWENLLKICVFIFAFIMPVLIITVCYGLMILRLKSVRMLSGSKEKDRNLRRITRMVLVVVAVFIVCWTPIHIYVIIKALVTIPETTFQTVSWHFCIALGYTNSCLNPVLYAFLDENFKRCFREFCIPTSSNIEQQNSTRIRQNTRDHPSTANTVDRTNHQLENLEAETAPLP
5-hydroxytryptamine receptor 5A, sequence (P47898 whole entry): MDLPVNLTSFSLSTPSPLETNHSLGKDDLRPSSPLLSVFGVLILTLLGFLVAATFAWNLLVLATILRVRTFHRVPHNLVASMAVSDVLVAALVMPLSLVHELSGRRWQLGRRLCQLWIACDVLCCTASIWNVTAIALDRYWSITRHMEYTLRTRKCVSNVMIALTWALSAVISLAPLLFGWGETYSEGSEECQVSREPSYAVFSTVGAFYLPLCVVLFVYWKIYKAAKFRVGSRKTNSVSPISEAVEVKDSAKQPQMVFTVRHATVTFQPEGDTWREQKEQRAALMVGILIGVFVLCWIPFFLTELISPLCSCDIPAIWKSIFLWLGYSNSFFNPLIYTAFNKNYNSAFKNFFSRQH
Mitogen-activated protein kinase 10, sequence (P53779 whole entry): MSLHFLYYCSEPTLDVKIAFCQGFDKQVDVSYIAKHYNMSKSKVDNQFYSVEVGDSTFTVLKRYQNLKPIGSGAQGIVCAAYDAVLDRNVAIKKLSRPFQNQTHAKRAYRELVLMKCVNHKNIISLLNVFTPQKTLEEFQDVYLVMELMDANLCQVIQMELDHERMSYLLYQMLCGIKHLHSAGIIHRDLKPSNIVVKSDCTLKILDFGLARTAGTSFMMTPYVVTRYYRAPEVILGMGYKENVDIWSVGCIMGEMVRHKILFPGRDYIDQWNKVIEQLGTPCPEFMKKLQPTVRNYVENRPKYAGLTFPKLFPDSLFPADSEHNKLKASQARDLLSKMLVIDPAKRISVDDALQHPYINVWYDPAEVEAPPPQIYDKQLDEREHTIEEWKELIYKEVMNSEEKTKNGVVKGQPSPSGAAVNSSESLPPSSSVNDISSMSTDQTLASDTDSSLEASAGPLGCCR

CCOC(=O)C1(CC2CCCCO2)CCN(Cc2ccc(OC)cc2F)CC1 (centres undefined)
EC50 [1]: > 92.5 µM (inactive)
EC50 (Mu-type opioid receptor): > 92.5 µM (inactive)
EC50 [2]: > 92.5 µM (inactive)

O=C(N/N=C/c1cn(Cc2ccccc2)c2ccccc12)c1cc(O)cc(O)c1
AC50 (CAAX prenyl protease 2): 12.6 µM (active)
AC50 (Caspase-6): 3.09 µM (active)

Cc1ccc2nc(Cc3ccc(N)cc3)oc2c1
IC50 [3]: 49.9 µM (not active)
AC50 (A-375 [4]): > 35 µM (active)
AC50 (A-375 [5]): > 35 µM (active)

O=C(CN1CCCCC1)Nc1cc(Cl)ccc1Cl
AC50 (Escherichia coli): 144 µM (active)
